Measurements published in patent US20240174618A1, “SUBSTITUTED (2-HETEROARYLOXYPHENYL)SULFONATES, SALTS THEREOF AND THEIR USE AS HERBICIDAL AGENTS” (Bayer Aktiengesellschaft, priority 2021, published 2024).

Assays:
Type in all cases: in vivo
[1] = system: Abutilon theophrasti (ABUTH); assay: E. Herbicidal post-emergence efficacy, ABUTH
Outline: (§1)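 Compounds applied at 320 g/ha or less as a foliar spray (600 l/ha, 0.5% additive) to one-leaf-stage greenhouse plants grown in sandy loam. Damage is visually scored in percent relative to untreated plants after about 3 weeks.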

[2] = system: Amaranthus retroflexus (AMARE); assay: B. Herbicidal post-emergence efficacy, AMARE
Outline: (§2)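 Weeds grown in sandy loam in greenhouse and sprayed at the one-leaf stage, 2–3 weeks after sowing, with WP or EC formulations plus 0.5% additive at 600 L/ha water. Injury rated visually versus untreated controls after about 3 weeks (100% = dead, 0% = like control); rates up to 1280 g/ha.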

[3] = system: Pharbitis purpurea (PHBPU); assay: E. Herbicidal post-emergence efficacy, PHBPU
Outline: as §1

[4] = system: Digitaria sanguinalis (DIGSA); assay: A. Herbicidal pre-emergence efficacy, DIGSA; conditions: scored visually after about 3 weeks vs untreated controls
Outline: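 Applied before emergence onto covering soil at rates of 1280 g/ha or less, using 600 L/ha spray water with 0.5% additive. Scoring: visual % efficacy after ~3 weeks, greenhouse.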

Stellaria media (STEME) = assay: B. Herbicidal post-emergence efficacy, STEME
Outline: as §2

Veronica persica (VERPE) = assay: B. Herbicidal post-emergence efficacy, VERPE
Outline: as §2

[5] = system: Alopecurus myosuroides (ALOMY); assay: C. Herbicidal pre-emergence efficacy, ALOMY; conditions: scored after about 3 weeks
Text: Seeds of monocotyledonous and dicotyledonous weed plants and crop plants were placed in plastic or organic planting pots and covered with soil. The compounds of the invention, formulated in the form of wettable powders (WP) or as emulsion concentrates (EC), were then applied to the surface of the covering soil as aqueous suspension or emulsion with addition of 0.5% additive at a water application rate equivalent to 600 l/ha (converted). After the treatment, the pots were placed in a greenhouse and kept under good growth conditions for the test plants. After about 3 weeks, the efficacy of the preparations was scored visually in comparison with untreated controls as percentages. For example, • 100% efficacy=plants have died, • 0% efficacy=like untreated control plants.
Tables C1a to C14b below show the effects of selected compounds of the general formula (I) according to table 1 on various harmful plants at an application rate corresponding to 320 g/ha or less, which were obtained by the experimental procedure mentioned above.

Viola tricolor (VIOTR) = assay: E. Herbicidal post-emergence efficacy, VIOTR
Outline: as §1

SMILES	Post-emergence efficacy against ABUTH in % ([1]; application rate 320 g/ha)	Post-emergence efficacy against AMARE ([2]; 80 g/ha)	Post-emergence efficacy against AMARE ([2]; 320 g/ha)	Post-emergence efficacy against AMARE ([2]; 1280 g/ha)	Post-emergence efficacy against PHBPU in % ([3]; application rate 80 g/ha)	Post-emergence efficacy against PHBPU in % ([3]; application rate 320 g/ha)	Pre-emergence efficacy against DIGSA ([4]; 80 g/ha)	Pre-emergence efficacy against DIGSA ([4]; 320 g/ha)	Pre-emergence efficacy against DIGSA ([4]; 1280 g/ha)	Post-emergence efficacy against STEME (Stellaria media (STEME); 80 g/ha)	Post-emergence efficacy against STEME (Stellaria media (STEME); 320 g/ha)	Post-emergence efficacy against STEME (Stellaria media (STEME); 1280 g/ha)	Post-emergence efficacy against VERPE (Veronica persica (VERPE); 80 g/ha)	Post-emergence efficacy against VERPE (Veronica persica (VERPE); 320 g/ha)	Post-emergence efficacy against VERPE (Veronica persica (VERPE); 1280 g/ha)	Pre-emergence efficacy against ALOMY ([5]; 80 g/ha)	Pre-emergence efficacy against ALOMY ([5]; 320 g/ha)	Post-emergence efficacy against VIOTR in % (Viola tricolor (VIOTR); application rate 80 g/ha)	Post-emergence efficacy against VIOTR in % (Viola tricolor (VIOTR); application rate 320 g/ha)	Post-emergence efficacy against ABUTH in % ([1]; application rate 80 g/ha)
O=S(=O)(CCCCl)Oc1c(F)cccc1Oc1ncc(Cl)cn1 [Example I-14]	90%	100%	100%	100%	100%	100%	100%	100%	100%	100%	100%	100%	100%	100%	100%	90%	100%	90%	90%	–
O=S(=O)(CC1CC1)Oc1ccccc1Oc1ncc(Cl)cn1 [Example I-23]	90%	100%	100%	100%	–	100%	90%	100%	100%	90%	100%	100%	90%	100%	100%	80%	100%	100%	100%	–
O=S(=O)(CCC(F)(F)F)Oc1c(Cl)cccc1Oc1ncc(Br)cn1 [Example I-32]	80%	100%	100%	100%	80%	80%	–	90%	90%	100%	100%	100%	100%	100%	100%	–	100%	100%	100%	80%
O=S(=O)(CCCC(F)(F)F)Oc1c(Cl)cccc1Oc1ncc(Br)cn1 [Example I-34]	80%	100%	100%	100%	80%	100%	–	–	90%	100%	100%	100%	100%	100%	100%	–	80%	100%	100%	80%
O=S(=O)(CCC(F)(F)F)Oc1c(F)cccc1Oc1ncc(Br)cn1 [Example I-40]	100%	–	90%	90%	100%	100%	100%	100%	100%	–	–	–	90%	90%	90%	–	100%	100%	100%	90%
O=S(=O)(CCC(F)(F)F)Oc1c(F)cccc1Oc1ncc(F)cn1 [Example I-47]	100%	–	–	–	90%	100%	100%	100%	100%	100%	100%	100%	–	–	–	100%	100%	100%	100%	–
